Assay results: patent US9309298B2, “Anti-bacterial polypeptides and pathogen specific synthetic antibodies” (priority 2011, dated 2016)
Bridge positions count the residues as written; N and C are the ends. Square brackets hold non-standard residues; d marks the D form. Ends that are not written are not given here. I, II: the chains in the order shown. * marks the point of attachment. StBu = CC(C)(C)S*

Key:
P. aeruginosa = type: cell-based
S. mutans = type: cell-based
Staphylococcus aureus = assay: Mutant library in vitro inhibition activity, S. aureus; type: cell-based; conditions: relative growth after 18 hours of co-incubation
Method: (§1) A library of 340 mutants of original lytic peptide (killing domain in synbody) was synthesized with single amino acid substitutions. Mutants along with original peptide as positive control were tested in vitro for inhibition activity against S. aureus and Pseudomonas aeruginosa. […] Ratio reflect the improvement in activity as “Mutant[Relative growth]/Orignal[Relative growth].

S. aureus [1] = assay: Solution inhibition assay, S. aureus; type: cell-based; conditions: negative control synbody
Method: The advantage of the synbody “DR-RW” over the single peptides can be noticed in the range 10-25 uM.

S. aureus [2] = type: cell-based
[3] = In vivo characterization: immune response and acute toxicity in mice; design: species or system CD1 mice
Description: FIG. 3. Graph of immune response cytoxicity data of a composition of the invention in CD1 mice.
(§2) GAL80 synbody was used as a negative control with no activity against S. aureus. […] Synbody was abbreviated as “SB”.

human cells = type: cell-based
Description: FIG. 2. Graph of cytoxicity data of a composition of the invention in human tissue culture studies.
as §2

B. subtilis = type: cell-based
Pseudomonas aeruginosa = assay: Mutant library in vitro inhibition activity, Pseudomonas aeruginosa; type: cell-based; conditions: relative growth after 18 hours of co-incubation
Method: as §1

Row | Substance | ratio, Mutant[Relative growth]/Orignal[Relative growth] (Staphylococcus aureus) | ratio, Mutant[Relative growth]/Orignal[Relative growth] (Pseudomonas aeruginosa) | also measured
1 | DRIFHKMQHKPYKIKKRGSC | – | – | Avg MIC ± SD, PA (P. aeruginosa): >100 µM; Avg MIC ± SD, SM (S. mutans): >100 µM
2 | FWRRHKHFKRPHRKHKR [Mut 14] | 1.653 | – | –
3 | GAL80 synbody: synbody used as a negative control with no activity against S. aureus (peptide 1 GTEKGTSGWLKTGSC; peptide 2 EGEWTEGKLSLRGSC) | – | – | Activity against S. aureus (S. aureus [1]): no activity
4 | I: DRIFHKMQHKPYKIKKRGSGGGKC(StBu)-NH2 / II: RWRRHKHFKRPHRKHKRGSG (amide I:23-II:C) [Synbody] | – | – | Avg MIC ± SD, SA (S. aureus [2]): 14 ± 0.8 µM; Acute toxicity ([3]; 500 ug dose): no immune response or acute toxicity; Immune response ([3]; 500 ug dose, FIG. 3): no immune response; Level of IgG, PBS versus synbody injected mice ([3]; FIG. 3): no difference detected; Cytotoxic activity (human cells): no cytotoxic activity; Avg MIC ± SD, BS (B. subtilis): 14 ± 1.1 µM; Avg MIC ± SD, PA (P. aeruginosa): 22 ± 1.8 µM; Avg MIC ± SD, SM (S. mutans): >100 µM
5 | LWRRHKHFKRPHRKHKR [Mut 11] | 1.58 | – | –
6 | PWRRHKHFKRPHRKHKR [Mut 15] | 1.658 | – | –
7 | RLRRHKHFKRPHRKHKR [Mut 31] | 1.633 | – | –
8 | RRRRHKHFKRPHRKHKR [Mut 22] | 6.1 | 2.073 | –
9 | RWRFHKHFKRPHRKHKR [Mut 74] | – | 1.017 | –
10 | RWRRAKHFKRPHRKHKR [Mut 81] | 1.525 | – | –
11 | RWRRFKHFKRPHRKHKR [Mut 94] | – | 1.211 | –
12 | RWRRHFHFKRPHRKHKR [Mut 114] | – | 10.95 | –
13 | RWRRHGHFKRPHRKHKR [Mut 108] | – | 1.191 | –
14 | RWRRHHHFKRPHRKHKR [Mut 109] | – | 1.395 | –
15 | RWRRHIHFKRPHRKHKR [Mut 110] | – | 4.387 | –
16 | RWRRHKAFKRPHRKHKR [Mut 121] | – | 2.297 | –
17 | RWRRHKHFKRDHRKHKR [Mut 204] | – | 2.107 | –
18 | RWRRHKHFKRFHRKHKR [Mut 214] | – | 1.134 | –
19 | RWRRHKHFKRMHRKHKR [Mut 213] | – | 1.185 | –
20 | RWRRHKHFKRPHRKHFR [Mut 314] | 1.497 | – | –
21 | RWRRHKHFKRPHRKHKF [Mut 334] | 2.37 | – | –
22 | RWRRHKHFKRPHRKHKK [Mut 332] | 2.438 | – | –
23 | RWRRHKHFKRPHRKHKRGSC | – | – | Avg MIC ± SD, SA (S. aureus [2]): 28 ± 1.5 µM; Avg MIC ± SD, BS (B. subtilis): 20 ± 0.3 µM; Avg MIC ± SD, PA (P. aeruginosa): 27 ± 2.3 µM; Avg MIC ± SD, SM (S. mutans): >100 µM

Row | Substance | ratio, Mutant[Relative growth]/Orignal[Relative growth] (Staphylococcus aureus) | ratio, Mutant[Relative growth]/Orignal[Relative growth] (Pseudomonas aeruginosa) | also measured
24 | RWRRHKHFKRPHRKTKR [Mut 297] | 2.339 | – | –
25 | RWRRHKHFKRPHRKVKR [Mut 300] | 1.453 | – | –
26 | RWRRHKHFKRPYRKHKR [Mut 239] | 2.12 | – | –
27 | RWRRHKHFKRRHRKHKR [Mut 202] | – | 1.3565 | –
28 | RWRRHKHFRRPHRKHKR [Mut 162] | 2.125 | – | –
29 | RWRRHKHKKRPHRKHKR [Mut 152] | 2.049 | – | –
30 | RWRRHKHLKRPHRKHKR [Mut 151] | 1.312 | – | –
31 | RWRRHKHMKRPHRKHKR [Mut 153] | 2.293 | – | –
32 | RWRRHKHPKRPHRKHKR [Mut 155] | 2.359 | – | –
33 | RWRRHKRFKRPHRKHKR [Mut 122] | 17.45 | 3.121 | –
34 | RWRRHKVFKRPHRKHKR [Mut 140] | 1.658 | – | –
35 | RWRRHKWFKRPHRKHKR [Mut 138] | – | 1.315 | –
36 | RWRRHKYFKRPHRKHKR [Mut 139] | 2.136 | 1.164 | –
37 | RWRRHKd-KFKRPHRKHKR (RWRRHK[dK]FKRPHRKHKR) [Mut 125] | 1.593 | – | –
38 | RWRRHLHFKRPHRKHKR [Mut 111] | – | 1.71 | –
39 | RWRRHRHFKRPHRKHKR [Mut 102] | – | 1.077 | –
40 | RWRRHVHFKRPHRKHKR [Mut 120] | – | 3.684 | –
41 | RWRRIKHFKRPHRKHKR [Mut 90] | 1.747 | – | –
42 | RWRRMKHFKRPHRKHKR [Mut 93] | – | 1.035 | –
43 | RWRRNKHFKRPHRKHKR [Mut 83] | 13.15 | – | –
44 | RWRRPKHFKRPHRKHKR [Mut 95] | 9.077 | – | –
45 | RWRRWKHFKRPHRKHKR [Mut 98] | – | 1.183 | –
46 | d-KWRRHKHFKRPHRKHKR ([dK]WRRHKHFKRPHRKHKR; not fully specified (some residues)) [Mut 5] | 1.308 | – | –
